Measurements: ChEMBL document CHEMBL3507680, “University of Dundee, Gates Library screen for HepG2 cell viability”

Assay: Human HepG2 cell viability assay in 384 well format
Format: toxicity, cell-based
Parameters: dose 125 nL, time 70.5 hour; concentration not given beside the values
Settings: HepG2 cells, read-out: Inhibition

Row | SMILES | cytotoxicity at 70.5 h
1 | CC(C)Oc1ccc(Cl)c(C(=O)N2CCN(CCO)CC2)n1 | -12.1%
2 | CC(C)Cc1cc(CNc2nc(-c3cccnc3)nc3c2CNC3)no1 | -15.7%
3 | Cn1cc(N2C(=O)CC[C@@H]3[C@H]2CCN3Cc2cccc(C#N)c2)cn1 | -13.2%
4 | O=C(NC1CCc2nccn2C1)c1ccc(NC2CC2)nc1 (configuration not stated) | -12%
5 | CC(=O)N1C[C@@H](c2ccsc2)[C@@H]2CN(Cc3ccccc3Cl)CC[C@@H]21 | -5.99%
6 | Cc1nc(Nc2nccs2)cc(C2CN(C(C)C)C2)n1 | -5.94%
7 | Cc1nc(C)n(C2CCCN(C(=O)c3ccccc3C)C2)n1 (configuration not stated) | -7.9%
8 | c1ccc(CN2CCC(Cc3noc(C4CC4)n3)CC2)cc1 | -5.84%
9 | O=C(N[C@@H]1CNCCC[C@H]1O)c1ccc(OCCN2CCOCC2)cc1 | 1.5%
10 | CCCOC(=O)N1CCc2cccc(S(=O)(=O)N3CCOCC3)c2C1 | -8.66%
11 | Cc1ccc(CN(C)C(=O)NCC(C)(C)S(C)(=O)=O)s1 | -2.7%
12 | CCOc1ccc(C2CCCN2Cc2nnnn2C2CC2)cc1 (configuration not stated) | 0.0309%
13 | CCn1ccnc1CN1CCN(CCOc2ccccc2C#N)CC1 | -19.6%
14 | CC(C)(C)C(=O)NCCc1cc2nc(-c3ccncc3)ccn2n1 | 1.86%
15 | COC1CN(CCO)S(=O)(=O)c2ccccc21 (configuration not stated) | -7.83%
16 | CC1(CCNC(=O)NCc2ccsc2)OCCO1 | -6.29%
17 | N#CCCN(CC1CCOC1)S(=O)(=O)c1cccc(Cl)c1 (configuration not stated) | -5.98%
18 | CN(C)c1cc2c(nn1)CCN(C(=O)c1cc3c(s1)CCC3)C2 | 8.88%
19 | Cc1cc(N2CCOC(c3ccc(C(N)=O)cn3)C2)ncn1 (configuration not stated) | 19.9%

Row | SMILES | cytotoxicity at 70.5 h
20 | O=C(c1cnn2c1OCCC2)N1CCC(Cc2ccccc2)CC1 | 29.6%
21 | O=C(NCc1cc[nH]n1)N1CCC(Oc2ccccc2Cl)CC1 | 8.97%
22 | CO[C@H]1CN(C(C)C)C[C@@H]1NC(=O)c1cc(COc2ccccc2)[nH]n1 | -3.71%
23 | O=C(NCc1cccnc1OCC(F)(F)F)N1CCOCC1 | 7.44%
24 | O=C(CCCc1ccccn1)N1CCCC(n2cccn2)C1 (configuration not stated) | -3.36%
25 | CCc1ccc(O)c(C(=O)NC2CCN(S(=O)(=O)CC)CC2)c1 | 8.84%
26 | CN(CCC#N)C(=O)CN1CCC(c2cc3ccccc3[nH]2)CC1 | 4.21%
27 | Cc1ccc(CN2CCC3(CC2)CC3CN(C)Cc2cccnc2)o1 (configuration not stated) | -5.02%
28 | CC(C)Oc1ncnc2c1CCN(Cc1ccc(F)cc1)CC2 | -5.44%
29 | O=C(c1ccno1)N1CCOC[C@H](Oc2ccc(C(F)(F)F)cc2)C1 | -0.658%
30 | Cc1cnc(N2CCC3(CC2)CC3C(=O)NCC2CC2)nc1 (configuration not stated) | 11.9%
31 | O=C(NCCCc1ccncc1)C1CCCN(Cc2ccco2)C1 (configuration not stated) | 9.58%
32 | O=C(CCCc1ccccn1)N1CCC(n2cccc2)CC1 | -1.32%
33 | COc1ccccc1C(=O)Nc1c(C)cnn1CC1CC1 | -21.8%
34 | COc1cc(C2SCC(=O)Nc3ccsc32)cc(OC)c1O (configuration not stated) | -4.76%
35 | CN1CCN(Cc2n[nH]c(=O)n2CC2CCCCC2)CC1 | -6.17%
36 | O=C(c1cccnc1)N1CCN2C[C@H](OCc3ccccc3)C[C@H]2C1 | -5.95%
37 | CCC(C)C(=O)NCc1cccc(N2CCCCC2=O)c1 (configuration not stated) | -4.37%
38 | CCc1noc(C(C)N2CCC(NS(=O)(=O)c3ccccc3)CC2)n1 (configuration not stated) | 19.7%

Row | SMILES | cytotoxicity at 70.5 h
39 | Cc1cccc(NC2CCN(C(=O)Nc3cc(F)ccc3F)CC2)n1 | 0.351%
40 | CC(C(=O)N1CCN(C(=O)c2ccc(F)cc2F)CC1)n1ccnc1 (configuration not stated) | -4.77%
41 | CC(OCC1CC1)C(=O)N1CCCN(Cc2cscn2)CC1 (configuration not stated) | 1.88%
42 | COCCN1CCC(C)(c2cc(O)[nH]n2)CC1 | -3.06%
43 | CC(C)CN1CCC(c2nc3c([nH]2)CC(C)(C)CNC3=O)C1 (configuration not stated) | -9.67%
44 | Cc1nc2ccccc2n1Cc1cc(C(=O)N(C)C2CCOC2)n[nH]1 (configuration not stated) | -12.8%
45 | OCC1CCCCN1CCn1ccnc1-c1nc2ccccc2[nH]1 (configuration not stated) | -2.11%
46 | CCN1CCNC(=O)C12CCN(C(=O)Cc1ccccn1)CC2 | -1.44%
47 | CC(=O)c1cccc(-n2nc(C(C)=O)c(C(C)=O)c2C)c1 | -2.25%
48 | CCOc1ccnc(N2CCN(C(=O)c3ccc(C#N)cc3)CC2)n1 | 2.75%
49 | COC(CNC(=O)N1CCC(n2cncn2)CC1)c1ccccc1 (configuration not stated) | 6.02%
50 | COCCC(=O)N1CCC2(CCCN2Cc2ccccc2)C1 (configuration not stated) | -52.9%
51 | Cc1occc1C(=O)N1CCN2C[C@H](Oc3cccnc3)C[C@H]2C1 | 0.855%
52 | COCCCC1(CO)CCCN(CCS(C)(=O)=O)C1 (configuration not stated) | -6%
53 | CCN(CC)C(=O)Cn1cc(-c2nc(-c3ccccc3C)no2)nn1 | -9.94%
54 | COC(=O)C1CCCN1CC(=O)NCc1ccc(OCC(N)=O)cc1 (configuration not stated) | 4.54%
55 | COc1cccc(COCC(=O)N2CCCC(c3nncn3C)C2)c1 (configuration not stated) | -12.7%
56 | Cn1cnnc1CNC(=O)C1CCCN(Cc2cccc(F)c2)C1 (configuration not stated) | -13.7%
57 | OC1CCN(c2cnnc3ccccc23)CC1 | 30.5%
